Reference: US20080004694A1, “COMPOSITIONS AND METHODS FOR ADMINISTERING DEXAMETHASONE WHICH PROMOTE HUMAN CORONARY ARTERY ENDOTHELIAL CELL MIGRATION” (ABBOTT LABORATORIES, priority 2006, published 2008)
Entries after “also recorded” stand apart in the source; their conditions may differ.

Experiments:
[1] = test system: p70S6K (T389) phosphorylation in hCaEC; experiment: Western blot of p70S6K (T389) phosphorylation in hCaEC; type: cell-based, human; conditions: for effect on p70S6K T389 phosphorylation in hCaEC: 300 nM drug in growth media, 36 hours, after 24 h synchronization
Description: Human Coronary Endothelial Cells (hCaEC, Cambrex) were seeded on 100 mm plastic dishes (1-3×10^5 cells per dish) and incubated at 37° C. with 5% CO2 in complete growth media containing hFGF, HEGF, VEGF, R^3-IGF-1 and 5% FBS (GM). Cells were allowed to grow until dishes were 30-40% confluent. Cells were synchronized by incubation in basal media without supplements (BM) for 24 h. After synchronization the BM was replaced with GM containing test compounds, DMSO and BSA (Experimental dish: GM containing 300 nM test compounds, 0.1% BSA; Positive control: GM containing 0.1% BSA and 0.1% DMSO; Negative control: BM containing 0.1 or 0.5% FBS, 0.1% BSA and 0.1% DMSO).
Cells were incubated for 24 or 36 hours at 37° C. with 5% CO2. After which dishes were 50-70% confluent. Dishes were rinsed with warm PBS to remove excess FBS and than placed on ice. Whole cell lysates were prepared by adding 150-200 ul of RIPA lysis buffer at 4° C. (50 mM Tris HCl pH 8, 150 mM NaCl, 1% NP-40, 0.5% sodium deoxycholate, 0.1% SDS, 2 mM PMSF, 1 mM sodium orthovanadate, and protease inhibitor cocktail, Santa Cruz Biotechnology) to the culture dishes and collected by scrapping the plate surface with a cell scrapper. Lysates were transferred to 1 ml eppendorf tubes and incubated on ice with vortexing for 30 min. Samples were than centrifuged for 8 min at 10000 rpm. Supernatants were collected and transferred into new tubes and stored at −70° C.
The total protein concentration of the samples was determined by a modification of the method of Bradford (Quick Start Bradford Microplate Standard Assay, Bio-Rad) with bovine γ-globulin as a standard.
Total volume of the loaded sample was 45 ul containing 15 ul of 3× sample buffer (Laemmli Sample Buffer, Bio Rad), and sample (30 ul) containing 25 to 50 ug of protein. Samples were diluted to the same protein concentration. Samples were mixed and boiled at 98° C. for 3-4 minutes. Denaturated samples were separated in 4-15% gradient or 12% Ready Tris-HCl gels (Bio-Rad) in running buffer 25 mM Tris, pH 8.3, 192 mM glycine, 0.1% SDS at 150-180 V for 60-90 minutes and transferred to Hybond-ECL membrane (Amersham Biosciences) in 25 mM Tris, pH 8.3, 192 mM glycine, 20% methanol at 100 V for 1 hour.
Protein transfer to the membrane was verified by staining with Ponceau. Ponceau was removed by washing membranes 3 times for 5 minutes in TBS-T (10 mM Tris, pH 7.4, 150 mM NaCl, and 0.1% Tween 20). The membrane was blocked with a 3% solution of nonfat dry milk (Blotting-Grade Blocker, Bio-Rad) in TBS-T for 1 hour at room temperature. Membranes were then incubated with rabbit anti-phospho-p70S6K (T389) monoclonal antibody (Cell Signaling) 1:200 or 1:400 in 3% nonfat dry milk overnight at +4° C. and gently rocked. Goat polyclonal antibodies raised against the C-terminus of actin of human origin (Santa-Cruz Biotechnology) were used at a 1:800 dilution.
After overnight incubation with the primary antibody, membranes were washed with TBS-T 3 times for 5 minutes followed by incubation with the appropriate horseradish peroxidase linked secondary antibodies in 3% nonfat dry milk according to antibody supplier instructions. After one-hour incubation at room temperature with secondary antibodies the membrane was washed again using TBS-T, 3 times for 5 minutes and developed using ECL Plus (Amersham Biosciences). Images of the membranes were scanned and stored using a multi-channel scanning system FLA-5000 (FUJI Film). […]

[2] = test system: human coronary artery endothelial cells (hCaEC); experiment: hCaEC migration induced by full growth media after 24 h drug pretreatment; type: cell-based; conditions: for effect on full growth media induced hCaEC migration after drug pretreatment: 24 h pretreatment in full growth media, drug present during migration
Description: (§1) In acute studies, cells were collected, counted, and 200,000 hCaEC or 160,000 hCaSMC placed in the upper chambers of modified boyden chambers in 24 well plates (BD Biosciences). Plates contained microporous membranes of 3.0 and 8.0 um for hCaEC and hCaSMC, respectively. […] After migration, cells were stained with calcein-AM for 90 minutes and fluorescence determined using a plate reader capable of measuring fluorescence emitted by the bottom of the microporous filter.
Migration of hCaEC was induced by full growth media and the effects of the drugs sirolimus, dexamethasone, zotarolimus, everolimus, and paclitaxel on hCaEC migration determined. Following pretreatment cells were counted and re-suspended in basal media containing drugs and migration initiated.

[3] = test system: p70S6K (T389) phosphorylation in hCaSMC; experiment: Western blot of p70S6K (T389) phosphorylation in hCaSMC; type: cell-based, human; conditions: 300 nM drug, 36 hours, after 24 h synchronization
Description: To determine if inhibition of p70S6K was involved in serum-induced migration Western blot experiments were performed on hCaEC and hCaSMC treated using an experimental paradigm similar to those of the migration experiments. […] The effects of drug treatment on p70S6K T389 phosphorylation in hCaEC are illustrated in FIG. 6A-6B. […] Paclitaxel also reduces T389 phosphorylation though this effect is less than that of the mTOR antagonists.
Membranes were probed with a rabbit anti-phospho-p70S6K (T389) monoclonal antibody (Cell Signaling). […] Furthermore, the anti-migratory activity of the mTOR antagonists is not likely to contribute to their anti-restenotic activity. Conversely, paclitaxel is a potent anti-migratory agent and this effect is likely to contribute to the anti-restenotic activity.

[4] = test system: human coronary artery smooth muscle cells (hCaSMC); experiment: hCaSMC migration in response to FBS alone after 24 h drug pretreatment; type: cell-based; conditions: 24 h pretreatment in growth media, drug present
Description: as §1
Another experiment was conducted to determine if growth factors contained in full growth media played a role in the inability of the mTOR antagonist zotarolimus or dexamethasone to inhibit human coronary artery smooth muscle cell (hCaSMC) migration. Migration in response to FBS following pretreatment of hCaSMC with different concentrations of drugs was determined for the drugs dexamethasone, zotarolimus, rapamycin, and paclitaxel. To explore this effect, hCaSMC were synchronized, pretreated with drug in growth media for 24 hours, resuspended in basal media containing drug and migration in response to FBS alone determined.

[5] = test system: human coronary artery smooth muscle cells (hCaSMC); experiment: PDGF-BB induced hCaSMC migration after 24 h drug pretreatment; type: cell-based; conditions: 24 h pretreatment; PDGF-BB 25 ng/ml
Description: as §1
Pre-exposure with the mTOR agent sirolimus has been reported to block rat aortic smooth muscle cell migration in response to S1P-1 and porcine aortic smooth muscle in response to PDGF-BB. […] In contrast to their inability to block serum-induced migration, zotarolimus, dexamethasone, and paclitaxel all inhibited migration in response to the single chemotactic agent PDGF-BB (25 ng/ml).

[6] = test system: human coronary artery endothelial cells (hCaEC); experiment: hCaEC migration, modified Boyden chamber, acute drug exposure, induced by 5% FBS; type: cell-based; conditions: for effect on hCaEC migration: no pretreatment, 22 hour migration
Description: As such, EC and SMC migration in response to hFGF, HEGF, VEGF, R^3-IGF-1 and FBS or FBS alone was determined using a modified Boyden chamber.
When necessary, each cell type was passed at ˜75% confluence.
as §1

[7] = test system: human coronary artery endothelial cells (hCaEC); experiment: hCaEC migration in response to FBS after 24 h drug pretreatment; type: cell-based; conditions: 24 h pretreatment in growth media; migration to 5% FBS without growth factors; drug present
Description: as §1
To determine if growth factors contained in full growth media played a role in the inability of the mTOR antagonists (sirolimus or zotarolimus) or dexamethasone to inhibit migration, additional experiments were conducted to determine if drug pretreatment would affect migration induced by 5% FBS in the absence of growth factors. Migration in response to FBS following pretreatment of hCaEC with different concentrations of drugs was determined for the drugs sirolimus, dexamethasone, zotarolimus, and paclitaxel. To explore this effect in hCaEC, cells were synchronized, pretreated with drug in growth media for 24 hours, resuspended in basal media containing drug and migration in response to FBS determined. […] Dexamethasone promoted hCaEC migration.

pRb phosphorylation = experiment: pRb phosphorylation; type: cell-based

Compound | effect on p70S6K T389 phosphorylation in hCaEC [1] | effect on full growth media induced hCaEC migration after drug pretreatment [2] | effect on p70S6K T389 phosphorylation in hCaSMC [3] | effect on FBS-induced hCaSMC migration after drug pretreatment [4] | effect on migration of human coronary artery endothelial cells in vitro (summary statement) ([2]; in the presence of multiple growth factors and FBS) | effect on hCaSMC migration in response to PDGF-BB [5] | effect on p70S6K T389 phosphorylation in hCaEC ([1]; listed as Paclitaxel) | anti-migratory potency in hCaEC compared to hCaSMC [6] | effect on FBS-induced hCaEC migration after drug pretreatment [7] | effect on hCaEC migration [6] | effect on pRb phosphorylation (pRb phosphorylation) | p70S6K T389 to actin ratio compared to growth controls (densitometry) ([1]; hCaEC, 300 nM drug)
C[C@@H]1C[C@H]2[C@@H]3CCC4=CC(=O)C=C[C@]4(C)[C@@]3(F)[C@@H](O)C[C@]2(C)[C@@]1(O)C(=O)CO [dexamethasone] | does not inhibit |  |  |  |  |  |  |  |  |  |  | 
CO[C@H]1C[C@@H]2CC[C@@H](C)[C@@](O)(O2)C(=O)C(=O)N2CCCC[C@H]2C(=O)O[C@H]([C@H](C)C[C@@H]2CC[C@@H](OCCO)[C@H](OC)C2)CC(=O)[C@H](C)/C=C(\C)[C@@H](O)[C@@H](OC)C(=O)[C@H](C)C[C@H](C)/C=C/C=C/C=C/1C [everolimus] |  | only paclitaxel inhibits |  |  |  |  |  |  |  |  |  | 
CC(=O)O[C@H]1C(=O)[C@@]2(C)[C@H]([C@H](OC(=O)c3ccccc3)[C@]3(O)C[C@H](OC(=O)[C@H](O)[C@@H](NC(=O)c4ccccc4)c4ccccc4)C(C)=C1C3(C)C)[C@]1(OC(C)=O)CO[C@@H]1C[C@@H]2O [paclitaxel] | inhibit | inhibits | reduces | significantly blocks | inhibits | inhibited | reduces | significantly greater | significantly blocks |  |  | 
CO[C@H]1C[C@@H]2CC[C@@H](C)[C@@](O)(O2)C(=O)C(=O)N2CCCC[C@H]2C(=O)O[C@H]([C@H](C)C[C@@H]2CC[C@@H](O)[C@H](OC)C2)CC(=O)[C@H](C)/C=C(\C)[C@@H](O)[C@@H](OC)C(=O)[C@H](C)C[C@H](C)/C=C/C=C/C=C/1C [sirolimus] |  |  |  |  |  |  |  |  |  | no effect |  | 
CO[C@H]1C[C@@H]2CC[C@@H](C)[C@@](O)(O2)C(=O)C(=O)N2CCCC[C@H]2C(=O)O[C@H]([C@H](C)C[C@@H]2CC[C@H](n3cnnn3)[C@H](OC)C2)CC(=O)[C@H](C)/C=C(\C)[C@@H](O)[C@@H](OC)C(=O)[C@H](C)C[C@H](C)/C=C/C=C/C=C/1C [zotarolimus] | completely block; also recorded: inhibit | only paclitaxel inhibits | completely inhibit | did not significantly block |  | inhibited |  |  | did not significantly block | no effect | reduces | significant inhibition
